Laboratory results as given in US6562758B1 (priority 1999, dated 2003).
Values joined by “and” are separate entries in the source; they are usually repeats but may differ in a detail not shown here. Equal values may be shown once. Read-outs that look alike come from different tables or passages of the source.

Tests used:
Settings in all cases: in vivo
potato plants = system: potato plants
kidney beans [1] = system: kidney beans; design: species or system kidney bean
red kidney bean plants [2] = system: red kidney bean plants
cotton plants [3] = system: cotton plants; design: species or system cotton (Gossypium hirsutum)
cotton plants [4] = system: cotton plants; design: species or system cotton (Gossypium hirsutum); remark: listed apart in the source
red kidney bean plants [5] = system: red kidney bean plants; remark: listed apart in the source
kidney beans [6] = system: kidney beans; design: species or system kidney bean; remark: listed apart in the source
cotton plants [7] = system: cotton plants; design: species or system cotton (Gossypium hirsutum); remark: listed apart in the source
cotton plants [8] = system: cotton plants; design: species or system cotton (Gossypium hirsutum); remark: listed apart in the source

Structure (SMILES)	Percent Defoliation (potato plants)	% Regrowth at 21 DAT (kidney beans [1])	regrowth (kidney beans [1])	% Regrowth (red kidney bean plants [2]) [%]	% Defoliation (cotton plants [3])	% Defoliation (cotton plants [4])	% Defoliation (red kidney bean plants [5])	% Defoliation 15 DAT (kidney beans [6]) [%]	% Regrowth Avg. (cotton plants [7])	% Regrowth 20 DAT (cotton plants [8]) [%]
C[n+]1ccc(-c2cc[n+](C)cc2)cc1 [Paraquat, paraquat]	76% and 44%	–	–	–	–	–	–	–	–	–
CCOC(=O)/C(Cl)=C/c1cc(N2C(=O)C3=C(CCCC3)C2=O)ccc1Cl [BAS 123W, cinidon-ethyl]	–	124% and 110% and 73%	tended to promote regrowth	–	–	–	–	–	–	–
O=P(O)(O)CCCl [ETP, (2-chloroethyl)phosphonic acid]	–	–	–	10	31% and 49%	58% and 78%	18% and 20%	28	51%	36.3
C/C(=N\NC(=O)Nc1cc(F)cc(F)c1)c1ncccc1C(=O)O [DFP, diflufenzopyr]	–	–	reduced regrowth as compared to the untreated check	–	–	23% and 40% and 39% and 21%	–	59	7% and 6%	–
